Results taken from patent US11952384B2, “Anti-tumor compound and preparation method and use thereof” (DUALITY BIOLOGICS (SUZHOU) CO., LTD., priority 2020, dated 2024).

Columns and labels:
[1] = system: MDA-MB-231 cells; experiment: Inhibition of in vitro proliferation of tumor cells by compounds (CTG, 6 days); format: cell-based; settings: Homo sapiens, MDA-MB-231, 144 h, read-out: MDA-MB-231 IC50 (nM)
Description: To test the inhibitory activity of the pharmaceutical compounds on the in vitro proliferation of NCI-N87, JIMT-1 and MBA-MB-231 tumor cells. The cells were treated with compounds at different concentrations in vitro, and after 6 days of culture, the proliferation of cells was detected using CTG (CellTiter-Glo® Luminescent Cell Viability Assay, Promega, Cat. No. G7558) reagents, and the in vitro activity of the compounds was evaluated according to the IC50 value. • 1. Culturing of cells: NCI-N87/JIMT-1/MBA-MB-231 cells were cultured in RPMI-1640 medium containing 10% FBS. • 2. Preparation of cells: NCI-N87/JIMT-1/MBA-MB-231 cells in logarithmic phase were taken, washed with PBS once, and digested with 2-3 mL of trypsin for 2-3 min. After the cells were digested completely, 10-15 mL of cell culture was added to elute the digested cells. The eluate was centrifuged at 1000 rpm for 5 min, and the supernatant was discarded. The resulting cells were resuspended in 10-20 mL of cell culture to obtain a single cell suspension. • 3. Cell plating: the NCI-N87/JIMT-1/MBA-MB-231 single cell suspension was mixed well and adjusted to a viable cell density of 6×10^4 cells/mL with cell culture. The cell suspension with the adjusted density was mixed well and added to a 96-well cell culture plate at 50 μL/well. The culture plate was incubated in an incubator for 18 h (37° C., 5% CO2). • 4. Preparation of compounds: the compounds were dissolved in DMSO to obtain stock solutions at an initial concentration of 10 mM. There were 8 concentrations in total for the small molecule compounds: 300 nM, 100 nM, 30 nM, 10 nM, 3 nM, 1 nM, 0.3 nM, and 0.1 nM. • 5. Sample adding: the prepared samples to be detected at different concentrations were added to the culture plate, and two duplicate wells were set for each sample. The culture plate was incubated in an incubator for 6 days (37° C., 5% CO2). • 6. Color developing: the 96-well cell culture plate was taken out, added with the CTG reagent at 50 μL/well, and incubated at room temperature for 10 min. • 7. Plate reading: the 96-well cell culture plate was taken out, placed in a microplate reader, and measured for the chemiluminescence using the microplate reader. Data analysis: data were processed and analyzed using Microsoft Excel and Graphpad Prism 5.

[2] = system: JIMT-1 cells; experiment: as above; format: cell-based; settings: Homo sapiens, JIMT-1, 144 h, read-out: JIMT-1 IC50 (nM)
Description: (§1) To test the inhibitory activity of the pharmaceutical compounds on the in vitro proliferation of NCI-N87, JIMT-1 and MBA-MB-231 tumor cells. The cells were treated with the compounds at different concentrations in vitro, and after 6 days of culture, the proliferation of cells was detected using the CTG (CellTiter-Glo® Luminescent Cell Viability Assay, Promega, Cat. No. G7558) reagent, and the in vitro activity of the compounds was evaluated according to the IC50 value.
(§2) In the following, the test for the inhibition of the in vitro proliferation of NCI-N87 cells was taken as an example to illustrate the method of the present application for testing the inhibitory activity of the compounds of the present application on the in vitro proliferation of tumor cells. The method was also applicable to, but not limited to, the test for the inhibitory activity on the in vitro proliferation of other tumor cells. • 1. Culturing of cells: NCI-N87 cells were cultured in RPMI-1640 medium containing 10% FBS. • 2. Preparation of cells: NCI-N87 cells in logarithmic phase were taken, washed with PBS once, and digested with 2-3 mL of trypsin for 2-3 min. After the cells were digested completely, 10-15 mL of cell culture was added to elute the digested cells. The eluate was centrifuged at 1000 rpm for 5 min, and the supernatant was discarded. The resulting cells were resuspended in 10-20 mL of cell culture to obtain a single cell suspension. • 3. Cell plating: the NCI-N87 single cell suspension was mixed well and adjusted to a viable cell density of 6×10^4 cells/mL with cell culture. The cell suspension with the adjusted density was mixed well and added to a 96-well cell culture plate at 50 μL/well. The culture plate was incubated in an incubator for 18 h (37° C., 5% CO2). • 4. Preparation of compounds: the compounds were dissolved in DMSO to obtain stock solutions at an initial concentration of 10 mM. There were 8 concentrations in total for the small molecule compounds: 300 nM, 100 nM, 30 nM, 10 nM, 3 nM, 1 nM, 0.3 nM, and 0.1 nM. • 5. Sample adding: the prepared samples to be detected at different concentrations were added to the culture plate, and two duplicate wells were set for each sample. The culture plate was incubated in an incubator for 6 days (37° C., 5% CO2). • 6. Color developing: the 96-well cell culture plate was taken out, added with the CTG reagent at 50 μL/well, and incubated at room temperature for 10 min. • 7. Plate reading: the 96-well cell culture plate was taken out, placed in a microplate reader, and measured for the chemiluminescence using the microplate reader. Data Analysis
(§3) Data were processed and analyzed using Microsoft Excel and Graphpad Prism 5.
(§4) To test the inhibitory activity of the pharmaceutical compounds on the in vitro proliferation of NCI-N87, JIMT-1 and MBA-MB-231 tumor cells. The cells were treated with compounds at different concentrations in vitro, and after 6 days of culture, the proliferation of cells was detected using CTG (CellTiter-Glo® Luminescent Cell Viability Assay, Promega, Cat. No. G7558) reagents, and the in vitro activity of the compounds was evaluated according to the IC50 value. • 1. Culturing of cells: NCI-N87/JIMT-1/MBA-MB-231 cells were cultured in RPMI-1640 medium containing 10% FBS. • 2. Preparation of cells: NCI-N87/JIMT-1/MBA-MB-231 cells in logarithmic phase were taken, washed with PBS once, and digested with 2-3 mL of trypsin for 2-3 min. After the cells were digested completely, 10-15 mL of cell culture was added to elute the digested cells. The eluate was centrifuged at 1000 rpm for 5 min, and the supernatant was discarded. The resulting cells were resuspended in 10-20 mL of cell culture to obtain a single cell suspension. • 3. Cell plating: the NCI-N87/JIMT-1/MBA-MB-231 single cell suspension was mixed well and adjusted to a viable cell density of 6×10^4 cells/mL with cell culture. […]

[3] = system: NCI-N87 cells; experiment: as above; format: cell-based; settings: Homo sapiens, NCI-N87, 144 h, read-out: NCI-N87 IC50 (nM)
Description: as §1, §2, §3, §4

[4] = target: T1, BCRP (Homo sapiens, UniProt Q9UNQ0); experiment: Study on transporter substrates in Caco-2 cell model
T1 sequence (Q9UNQ0 1-655): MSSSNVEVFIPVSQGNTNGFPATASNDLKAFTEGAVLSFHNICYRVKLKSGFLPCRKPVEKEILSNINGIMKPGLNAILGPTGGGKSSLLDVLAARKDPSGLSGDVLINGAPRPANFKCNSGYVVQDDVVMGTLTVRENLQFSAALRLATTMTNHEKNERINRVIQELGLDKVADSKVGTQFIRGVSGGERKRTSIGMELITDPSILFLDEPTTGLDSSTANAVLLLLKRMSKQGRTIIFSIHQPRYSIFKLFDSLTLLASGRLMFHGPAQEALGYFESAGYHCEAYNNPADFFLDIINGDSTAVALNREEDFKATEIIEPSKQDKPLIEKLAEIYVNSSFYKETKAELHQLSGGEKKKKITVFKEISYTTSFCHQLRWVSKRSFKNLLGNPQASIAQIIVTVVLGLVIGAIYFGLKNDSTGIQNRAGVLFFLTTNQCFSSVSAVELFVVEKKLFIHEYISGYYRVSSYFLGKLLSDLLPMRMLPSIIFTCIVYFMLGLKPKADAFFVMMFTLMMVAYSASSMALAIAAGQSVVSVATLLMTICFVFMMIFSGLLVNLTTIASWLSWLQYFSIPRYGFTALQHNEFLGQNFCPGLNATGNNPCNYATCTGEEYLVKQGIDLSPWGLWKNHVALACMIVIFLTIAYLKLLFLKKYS

[5] = target: T2, P-gp (Homo sapiens, UniProt P08183); experiment: as above; format: in vitro ADME; settings: Caco-2 cell model
T2 construct: endogenous in cells; host or cells: Caco-2
T2 sequence (P08183 whole entry): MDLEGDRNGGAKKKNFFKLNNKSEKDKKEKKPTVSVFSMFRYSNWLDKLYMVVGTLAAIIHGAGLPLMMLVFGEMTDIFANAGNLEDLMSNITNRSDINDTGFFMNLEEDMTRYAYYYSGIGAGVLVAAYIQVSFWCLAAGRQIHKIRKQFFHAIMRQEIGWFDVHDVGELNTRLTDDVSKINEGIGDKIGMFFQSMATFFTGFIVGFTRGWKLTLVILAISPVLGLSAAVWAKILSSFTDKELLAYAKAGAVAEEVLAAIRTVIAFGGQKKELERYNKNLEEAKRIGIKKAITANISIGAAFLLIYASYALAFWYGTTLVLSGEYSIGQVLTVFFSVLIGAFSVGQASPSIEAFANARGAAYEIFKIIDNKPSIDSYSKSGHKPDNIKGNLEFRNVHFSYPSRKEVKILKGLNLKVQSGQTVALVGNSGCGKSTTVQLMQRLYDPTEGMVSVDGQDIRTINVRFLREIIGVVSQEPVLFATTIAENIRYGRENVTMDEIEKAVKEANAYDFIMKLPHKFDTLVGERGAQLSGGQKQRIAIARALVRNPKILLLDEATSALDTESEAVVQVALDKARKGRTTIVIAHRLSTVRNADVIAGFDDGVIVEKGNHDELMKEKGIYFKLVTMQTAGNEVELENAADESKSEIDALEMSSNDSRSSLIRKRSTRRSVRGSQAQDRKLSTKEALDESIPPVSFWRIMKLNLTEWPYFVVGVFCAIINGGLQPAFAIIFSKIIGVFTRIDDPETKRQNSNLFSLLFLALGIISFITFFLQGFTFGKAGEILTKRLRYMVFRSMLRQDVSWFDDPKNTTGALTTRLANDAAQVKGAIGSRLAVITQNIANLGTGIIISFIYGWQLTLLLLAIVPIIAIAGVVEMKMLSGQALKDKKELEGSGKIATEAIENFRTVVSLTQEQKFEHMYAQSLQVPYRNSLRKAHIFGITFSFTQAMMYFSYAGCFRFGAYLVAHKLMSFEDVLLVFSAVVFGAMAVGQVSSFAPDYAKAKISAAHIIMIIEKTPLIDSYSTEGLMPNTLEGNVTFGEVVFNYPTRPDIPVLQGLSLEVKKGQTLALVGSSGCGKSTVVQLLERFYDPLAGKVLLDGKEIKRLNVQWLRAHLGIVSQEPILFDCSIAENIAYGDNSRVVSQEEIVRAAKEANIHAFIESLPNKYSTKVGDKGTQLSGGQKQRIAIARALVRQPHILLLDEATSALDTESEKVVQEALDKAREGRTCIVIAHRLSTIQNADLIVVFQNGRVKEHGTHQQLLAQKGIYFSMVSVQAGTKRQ
Description: The resistance of each well was recorded. […] 2. […] The plate was vortexed for 10 min. The samples were centrifuged. […] HBSS was added to the basolateral compartment. […] 3. Data Analysis
Data were calculated using Microsoft Excel.

SMILES | IC50 [1] | IC50 [2] | other results
CC[C@@]1(O)C(=O)OCc2c1cc1n(c2=O)Cc2c-1nc1cc(F)c(C)c3c1c2[C@@H](NC(=O)C[C@H](C)N)CC3 [P-III-28, (S)-3-amino-N-((1S,9S)-9-ethyl-5-fluoro-9-hydroxy-4-methyl-10,13-dioxo-2,3,9,10,13,15-hexahydro-1H,12H-benzo[de]pyrano[3′,4′:6,7]indolizino[1,2-b]quinolin-1-yl)butanamide] | 1.2 nM | – | –
CC[C@@]1(O)C(=O)OCc2c1cc1n(c2=O)Cc2c-1nc1cc(F)c(C)c3c1c2[C@@H](NC(=O)c1ccc(O)cn1)CC3 [P-II-24, N-((1S,9S)-9-ethyl-5-fluoro-9-hydroxy-4-methyl-10,13-dioxo-2,3,9,10,13,15-hexahydro-1H,12H-benzo[de]pyrano[3′,4′:6,7]indolizino[1,2-b]quinolin-1-yl)-5-hydroxypicolinamide] | 8.5 nM | 20.8 nM | –
CC[C@@]1(O)C(=O)OCc2c1cc1n(c2=O)Cc2c-1nc1cc(F)c(C)c3c1c2[C@@H](NC(=O)CCNC)CC3 [P-III-9, N-((1S,9S)-9-ethyl-5-fluoro-9-hydroxy-4-methyl-10,13-dioxo-2,3,9,10,13,15-hexahydro-1H,12H-benzo[de]pyrano[3′,4′:6,7]indolizino[1,2-b]quinolin-1-yl)-3-methylaminopropanamide] | 28.9 nM | – | –
CC[C@@]1(O)C(=O)OCc2c1cc1n(c2=O)Cc2c-1nc1cc(F)c(C)c3c1c2[C@@H](NC(=O)c1ccc(O)cc1)CC3 [P-II-23, N-((1S,9S)-9-ethyl-5-fluoro-9-hydroxy-4-methyl-10,13-dioxo-2,3,9,10,13,15-hexahydro-1H,12H-benzo[de]pyrano[3′,4′:6,7]indolizino[1,2-b]quinolin-1-yl)-4-hydroxybenzamide-1-carboxamide] | 7.7 nM | – | –
CC[C@@]1(O)C(=O)OCc2c1cc1n(c2=O)Cc2c-1nc1cc(F)c(C)c3c1c2[C@@H](NC(=O)C[C@@H](N)CO)CC3 [P-III-29, (R)-3-amino-N-((1S,9S)-9-ethyl-5-fluoro-9-hydroxy-4-methyl-10,13-dioxo-2,3,9,10,13,15-hexahydro-1H,12H-benzo[de]pyrano[3′,4′:6,7]indolizino[1,2-b]quinolin-1-yl)-4-hydroxybutanamide] | 8.6 nM | 16.7 nM | –
CC[C@@]1(O)C(=O)OCc2c1cc1n(c2=O)Cc2c-1nc1cc(F)c(C)c3c1c2[C@@H](NC(=O)CC(C)(C)O)CC3 [P-III-21, N-((1S,9S)-9-ethyl-5-fluoro-9-hydroxy-4-methyl-10,13-dioxo-2,3,9,10,13,15-hexahydro-1H,12H-benzo[de]pyrano[3′,4′:6,7]indolizino[1,2-b]quinolin-1-yl)-3-hydroxy-3-methylbutanamide] | 2.88 nM | 2.87 nM | IC50 [3]: 4.75 nM
CC[C@@]1(O)C(=O)OCc2c1cc1n(c2=O)Cc2c-1nc1cc(F)c(C)c3c1c2[C@@H](NC(=O)CO)CC3 [Dxd, reference compound] | – | – | Recovery rate (%) AP-BL ([4]; Caco-2, KO143 +): 76.51%; Recovery rate (%) BL-AP ([4]; Caco-2, KO143 +): 74.87%; Efflux ratio ([4]; Caco-2, KO143 −): 74.03; Recovery rate (%) AP-BL ([4]; Caco-2, KO143 −): 57.76%; Recovery rate (%) BL-AP ([4]; Caco-2, KO143 −): 56.20%; Papp (A-B) (10^−6, cm/s) ([4]; Caco-2, KO143 −, 2 h): 0.07 10^−6, cm/s; Papp (B-A) (10^−6, cm/s) ([4]; Caco-2, KO143 −, 2 h): 4.82 10^−6, cm/s; BCRP substrate ([4]; Caco-2 cell model, from rate of change of efflux ratio): transporter BCRP substrate and Yes; P-gp substrate [5]: not a transporter P-gp substrate
CC[C@@]1(O)C(=O)OCc2c1cc1n(c2=O)Cc2c-1nc1cc(F)c(C)c3c1c2[C@@H](NC(=O)CS)CC3 [P-III-1, N-((1S,9S)-9-ethyl-5-fluoro-9-hydroxy-4-methyl-10,13-dioxo-2,3,9,10,13,15-hexahydro-1H,12H-benzo[de]pyrano[3′,4′:6,7]indolizino[1,2-b]quinolin-1-yl)-2-mercaptoacetamide] | 28.9 nM | – | –
